Source: ChEMBL document CHEMBL1131799, “Polyunsaturated fatty acid anilides as inhibitors of acyl-coA: cholesterol acyltransferase (ACAT)” (Bioorg Med Chem Lett, 1999)
pIC50: −log10 of the molar value.

Legend:
O-acyltransferase = O-acyltransferase (Oryctolagus cuniculus, UniProt G1SFD9); assay: Compound was tested for inhibitory activity against ACAT from rabbit intestine; type: tissue-based
[1] = target: T1, Acyl-CoA:cholesterol acyltransferase (Oryctolagus cuniculus, UniProt Q95214); assay: Compound was tested for inhibitory activity against ACAT from rabbit liver
T1 sequence (Q95214 whole entry): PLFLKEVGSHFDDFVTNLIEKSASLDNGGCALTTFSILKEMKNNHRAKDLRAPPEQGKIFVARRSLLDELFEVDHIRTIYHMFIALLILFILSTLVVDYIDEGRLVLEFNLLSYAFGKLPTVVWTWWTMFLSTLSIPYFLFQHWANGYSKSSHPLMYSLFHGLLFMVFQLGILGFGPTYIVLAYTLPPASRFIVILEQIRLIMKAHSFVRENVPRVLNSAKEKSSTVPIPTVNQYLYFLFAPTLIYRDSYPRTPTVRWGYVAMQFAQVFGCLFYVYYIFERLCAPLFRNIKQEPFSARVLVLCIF

[2] = target: T1, Acyl-CoA:cholesterol acyltransferase; assay: Compound was tested for inhibitory activity against ACAT from rabbit adrenal gland; type: tissue-based

Sequence of O-acyltransferase (G1SFD9 1-524): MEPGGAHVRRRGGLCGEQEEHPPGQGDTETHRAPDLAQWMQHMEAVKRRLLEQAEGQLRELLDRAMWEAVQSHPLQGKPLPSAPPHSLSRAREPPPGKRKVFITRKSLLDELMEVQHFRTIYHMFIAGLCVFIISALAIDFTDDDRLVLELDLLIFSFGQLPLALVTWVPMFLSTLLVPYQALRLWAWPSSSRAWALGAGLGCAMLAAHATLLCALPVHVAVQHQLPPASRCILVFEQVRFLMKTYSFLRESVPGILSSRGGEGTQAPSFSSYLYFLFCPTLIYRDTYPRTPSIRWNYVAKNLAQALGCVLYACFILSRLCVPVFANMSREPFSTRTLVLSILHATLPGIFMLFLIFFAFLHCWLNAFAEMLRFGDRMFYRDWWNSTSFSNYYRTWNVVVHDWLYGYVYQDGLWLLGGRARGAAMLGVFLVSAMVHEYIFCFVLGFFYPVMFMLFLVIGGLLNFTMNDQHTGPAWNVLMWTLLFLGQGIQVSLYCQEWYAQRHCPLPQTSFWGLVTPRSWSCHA

Row | pIC50 [1] | pIC50 [2] | SMILES | pIC50 (O-acyltransferase)
1 | 7.82 | 6.26 | CCCCCCCCCCCCCC(=S)Nc1c(C(C)C)cccc1C(C)C | 8.22
2 | 6.72 | 5.71 | CCCCCCCCCCC(C)(C)C(=O)Nc1c(OC)cc(OC)cc1OC [CL-976] | 

Row | SMILES | pIC50 [1] | pIC50 [2] | pIC50 (O-acyltransferase)
3 | C/C=C/C/C=C/C/C=C/C/C=C/C/C=C/C/C=C/CCCC(=O)Nc1c(C(C)C)cccc1C(C)C | 7.25 | 6.64 | 7.35
